[I] = hypoxanthine (inosine)
Experiments:
TLR7 = target: T1, TLR7 (Homo sapiens, UniProt Q9NYK1); format: cell-based
T1 construct: endogenous in cells; host or cells: primary human plasmacytoid dendritic cells from blood donors
T1 sequence (Q9NYK1 27-1049): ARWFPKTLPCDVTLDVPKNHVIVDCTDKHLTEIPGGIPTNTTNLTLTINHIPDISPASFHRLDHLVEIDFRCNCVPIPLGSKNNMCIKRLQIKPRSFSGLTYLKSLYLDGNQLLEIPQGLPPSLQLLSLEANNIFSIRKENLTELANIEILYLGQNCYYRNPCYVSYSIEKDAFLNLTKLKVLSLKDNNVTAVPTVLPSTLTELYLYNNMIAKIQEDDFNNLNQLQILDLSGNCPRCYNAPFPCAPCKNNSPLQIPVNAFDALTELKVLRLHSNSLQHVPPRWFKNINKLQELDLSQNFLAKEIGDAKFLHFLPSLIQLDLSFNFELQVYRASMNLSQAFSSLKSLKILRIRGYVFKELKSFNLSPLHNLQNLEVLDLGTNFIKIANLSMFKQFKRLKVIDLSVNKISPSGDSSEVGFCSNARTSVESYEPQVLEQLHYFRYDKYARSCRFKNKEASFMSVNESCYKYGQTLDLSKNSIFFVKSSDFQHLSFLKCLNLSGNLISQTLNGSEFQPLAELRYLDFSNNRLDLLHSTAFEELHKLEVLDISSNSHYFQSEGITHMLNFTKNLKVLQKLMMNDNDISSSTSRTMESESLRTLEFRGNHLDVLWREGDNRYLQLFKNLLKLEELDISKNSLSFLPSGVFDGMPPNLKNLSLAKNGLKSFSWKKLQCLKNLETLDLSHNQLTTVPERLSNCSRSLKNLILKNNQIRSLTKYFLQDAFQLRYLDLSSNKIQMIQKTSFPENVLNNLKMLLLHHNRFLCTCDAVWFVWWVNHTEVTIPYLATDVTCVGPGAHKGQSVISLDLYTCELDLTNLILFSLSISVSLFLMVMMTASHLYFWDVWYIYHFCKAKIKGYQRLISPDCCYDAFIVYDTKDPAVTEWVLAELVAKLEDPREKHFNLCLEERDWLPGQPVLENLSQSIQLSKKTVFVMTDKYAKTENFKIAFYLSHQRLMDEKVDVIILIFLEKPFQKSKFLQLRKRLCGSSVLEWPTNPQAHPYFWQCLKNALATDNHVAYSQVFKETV

TLR7 and TLR9 = assay: Tape stripping skin injury in 129 mice; format: in vivo; conditions: 24 hr
Method: C57BL/6 and 129 mice were purchased from Charles River Laboratories. (NZBxNZW)F1 female mice were purchased from Jackson Laboratories and used at 18-22 weeks of age. MyD88/KO and TLR9/KO mouse colonies were maintained at Simonsen Laboratories and used with age matched C57BL/6 wild type controls at 8-12 weeks of age. Tape stripping was performed after shaving the dorsal area (3×3 cm) using 10 strokes with duct tape. IRS was administered just before tape stripping SC at a distant site. Alternatively, in (NZBxNZW)F1 mice, IRS was administered long term. In certain experiments PDC and neutrophils were depleted with 250 μg of antibody given IP at day −2 and day 0, eight hours before tape stripping. Anti-120G8 (Imgenex) was used for depletion of PDC (Asselin-Paturel et al., 2003), and anti-GR1-LY6G (clone 1A8; Biolegend) was used for depletion of neutrophils (Daley et al., 2008). […] Percentage of area with open lesions in (NZBxNZW)F1 and normal mice was evaluated with Nikon software NIS-elements.
For analysis of cellular infiltrate mice were sacrificed 24 hr later and epidermis and derma were mechanically separated followed by enzymatic digestion with 0.28 U/ML of Liberase 3 (Roche) for 20 minutes at 37° C., passed trough a 70 μm filter washed in RPMI without serum, counted and stained for flow cytometric analyses. […]

Row | Substance | IC50 (TLR7; read-out: IC50, IFN-α, FLU) | IC90 (TLR7; read-out: IC90, IFN-α, FLU) | GC-induced neutrophil expansion (PDC; lupus-prone mice, blood) | sensitivity to GC of PDC, cDC and B cells (PDC; lupus-prone mice, spleen and blood) | cell death without GC (PDC; mouse, in vivo) | expression of IFN-α regulated and pro-inflammatory genes in skin (TLR7 and TLR9; 100 μg s.c. before tape stripping) | infiltration of cells including PDC and neutrophils (TLR7 and TLR9)
1 | 5′-TGC TCC TGG AGI GGT TGT-3′ (DNA TGCTCCTGGAGNGGTTGT; DNA, [I] at 12, backbone and methylation of C not given here) [SEQ ID NO:73] | 0.013 µM | 0.101 µM |  |  |  |  | 
2 | 5′-TGCTCCTGGAGGGGTTGT-3′ (DNA, backbone not given here) [SEQ ID NO:42] |  |  | reduction of the GC-induced neutrophil expansion | enhanced the sensitivity to GC of PDC, cDC and B cells | did not induce cell death without GC | significantly reduced the expression of both IFN-α regulated genes and pro-inflammatory genes | no measurable effect on infiltration of cells
